The nature of data set [1]: precipitation of small molecules under acid-mediated amyloidogenic conditions in the absence of TTR. In kind it is physicochemical. The settings on record: 3.6 μM, pH 4.4, 37° C., 72 h. The procedure: (§1) TTR amyloid inhibition efficacy was probed using a stagnant fibril formation assay described previously, wherein partial denaturation was triggered by acidification (pH 4.4, 37° C.) (Colon, W.; Kelly, J. W. Biochemistry 1992, 31, 8654-8660). Briefly, a test compound (7.2 or 3.6 μM) is incubated with TTR (3.6 μM) for 30 min in pH 7 buffer. Amyloidogenesis is then initiated by lowering to pH 4.4, where maximal fibril formation is observed with WT-TTR after 72 h (37° C.). […] From experience we know that excellent inhibitors allow <10% fibril formation at a small molecule concentration of 7.2 μM and <40% fibril formation at a concentration equal to that of WT-TTR (3.6 μM) (Hammarstrom, P.; et al. Science 2003, 299, 713-716; Klabunde, T.; et al. Nature Struct. Biol. 2000, 7, 312-321; Razavi, H.; et al. Angew Chem 2003, 42, 2758-2761; Miroy, G. J.; et al. Proc. Natl. Acad. Sci. USA 1996, 93, 15051-15056; Peterson, S. A.; et al. Proc. Natl. Acad. Sci. USA 1998, 95, 12956-12960; Baures, P. W.; et al. Bioorg. Med. Chem. 1998, 6, 1389-1401; Baures, P. W.; et al. Bioorg. Med. Chem. 1999, 7, 1339-1347; Petrassi, H. M.; et al. J. Am. Chem. Soc. 2000, 122, 2178-2192; McCammon, M. G.; et al. Structure 2002, 10, 851-863; Oza, V. B.; et al. J. Med. Chem. 2002, 45, 321-332; Saccheftini, J. C.; et al. Nature Rev. Drug Disc. 2002, 1, 267-275; Green, N. S.; et al. J. Am. Chem. Soc. 2003, 125, 13404-13414; Adamski-Werner, S. L.; et al. J. Med. Chem. 2004, 47, 355-374; Miller Sean, R.; et al. Lab. Inv. 2004, 84, 545-552). […] Therefore, when both the ligand and TTR are at equal concentrations, a population of TTR•I, TTR•I2 and unliganded TTR is observed, dictated by the dissociation constants. It is now established by other studies that inhibitor occupancy of only one of the two TTR binding sites is sufficient to stabilize the entire tetramer against amyloidogenesis (Wiseman, R. L.; et al. J. Am. Chem. Soc. 2005, in press). This is further supported by the observation herein that twenty-six of these dibenzofurans are excellent TTR amyloidogenesis inhibitors (<40% fibril formation) at a concentration equal to that of TTR (3.6 μM each, FIG. 3).

For data set [2], the target named is T1, TTR in human blood plasma (Homo sapiens, UniProt P02766).
T1 construct: from tissue; host or cells: human blood plasma
The experiment in a line: plasma TTR binding selectivity, antibody capture method. The settings on record: inhibitor 10.8 μM, 24 h, 37° C. As to the method:
Inhibitor binding selectivity to TTR in human blood plasma was assessed using a previously established antibody capture method (Purkey, H. E.; et al. Proc. Natl. Acad. Sci. USA 2001, 98, 5566-5571). In this evaluation, inhibitors (10.8 μM, ˜2-3× the natural concentration of TTR) are incubated in human blood plasma for 24 h at 37° C. Quenched sepharose resin is then added to the plasma to remove any small molecules that would bind to the resin as opposed to TTR. TTR and any TTR-bound small molecule is then immunocaptured using a polyclonal TTR antibody covalently attached to sepharose resin. After washing the resin (5×10 min washes), the antibody-TTR complex is dissociated at high pH and analyzed by RP-HPLC. The relative stoichiometry between TTR and inhibitor is then calculated from their HPLC peak areas using standard curves.
(§2) The procedures used for bacterial expression of TTR (Lai, Z.; et al. Biochemistry 1996, 35, 6470-6482), the stagnant fibril formation assay (Colon, W.; Kelly, J. W. Biochemistry 1992, 31, 8654-8660; Lai, Z.; et al. Biochemistry 1996, 35, 6470-6482), the blood plasma binding selectivity assay (Purkey, H. E.; et al. Proc. Natl. Acad. Sci. USA 2001, 98, 5566-5571), and analytical ultracentrifugation (Lashuel, H. A.; et al. Biochemistry 1998, 37, 17851-17864) have all been described in detail previously.

The target of data set [3] is T2, WT-TTR (Homo sapiens, UniProt P02766).
T2 construct: made in house
The experiment in a line: stagnant acid-mediated fibril formation assay (turbidity). The settings on record: WT-TTR 3.6 μM; for inhibitor potency against fibril formation: inhibitor 3.6 μM, pH 4.4, 72 h. Format: biochemical. The procedure: as §1, §2

Entries after “also recorded” stand apart in the source; their conditions may differ.

In the case of `O=C(O)c1cccc2c1oc1c(C(=O)O)ccc(Nc3cccc(C(F)(F)F)c3)c12` [Compound 26], the “precipitation in the absence of TTR” value in data set [1] is “no measurable precipitation”.
Regarding `O=C(O)c1cccc2c1oc1c(C(=O)O)ccc(Nc3cc(Cl)cc(Cl)c3)c12` [Compound 30], the “precipitation in the absence of TTR” value in data set [1] is “no measurable precipitation”.
For `O=C(O)c1cccc2c1oc1c(C(=O)O)ccc(Nc3cc(C(F)(F)F)cc(C(F)(F)F)c3)c12` [Compound 31], the “binding selectivity to TTR in human blood plasma” value (from here on “binding selectivity to TTR”) in data set [2] is “all but two (31 and 35) exhibit dramatically increased binding selectivity”.
Take `O=C(O)c1cccc(Nc2ccc(C(=O)O)c3oc4c(C(=O)O)cccc4c23)c1` [Compound 33]: in data set [2], the “binding selectivity to TTR” value is listed as “modest”. Also, the “inhibitor potency against fibril formation” value (“inhibitor potency” below) in data set [3] is “amongst the most potent”.
In the case of `O=C(O)c1cc(Nc2ccc(C(=O)O)c3oc4c(C(=O)O)cccc4c23)cc(C(=O)O)c1` [Compound 34], the “inhibitor potency” value in data set [3] is given as “all the inhibitors (except 34) display increased potency”. Further, the “inhibition of WT-TTR fibril formation” value in data set [3] (inhibitor 7.2 μM, pH 4.4, 37° C., 72 h) is listed as “not as effective; also recorded: all but one (34) completely inhibit fibril formation”.
`O=C(O)c1ccc(Nc2ccc(C(=O)O)c3oc4c(C(=O)O)cccc4c23)cc1` [Compound 35]: the “binding selectivity to TTR” value in data set [2] is “all but two (31 and 35) exhibit dramatically increased binding selectivity”.
Take `O=C(O)c1cccc2c1oc1c(C(=O)O)ccc(Nc3ccccc3F)c12` [Compound 36]: the “inhibitor potency” value in data set [3] is recorded as “most potent”.
As to `O=C(O)c1cccc2c1oc1c(C(=O)O)ccc(Oc3cccc(C(F)(F)F)c3)c12` [Compound 45], the “precipitation in the absence of TTR” value in data set [1] is “no measurable precipitation”.
Same read-out and setting: to `O=C(O)c1cccc2c1oc1c(C(=O)O)ccc(-c3cc(F)cc(F)c3)c12` [Compound 62] belongs “no measurable precipitation”.
With `O=C(O)c1cccc2c1oc1c(C(=O)O)ccc(-c3cc(Cl)cc(Cl)c3)c12` [Compound 63], the “inhibitor potency” value in data set [3] is given as “most potent”.
`O=C(O)c1cccc2c1oc1c(C(=O)O)ccc(-c3ccccc3F)c12` [Compound 67]: in data set [3], the “inhibitor potency” value was “most potent”.
With `O=C(O)c1cccc(-c2ccc(C(=O)O)c3oc4c(C(=O)O)cccc4c23)c1` [Compound 69], the “binding selectivity to TTR” value in data set [2] is on record as “modest”. In addition, in data set [3], the “inhibitor potency” value is reported as “amongst the most potent”.
